Data as given in ChEMBL document CHEMBL4622932, “Design, synthesis and biological evaluation of new Myo-inositol derivatives as potential RAS inhibitors” (Bioorg Med Chem Lett, 2020).

How the values were obtained:
MCF7 [1] = test: Antiproliferative activity against human MCF7 cells reduction in cell viability measured after 48 hrs by MTT assay; format: functional, cell-based
[2] = target: GTPase KRas (Homo sapiens) (UniProt P01116); test: Inhibition of KRAS in human MCF7 cells assessed as reduction in MEK1/2 9G3 protein level at 15 uM measured after 24 hrs by Western blot analysis relative to control; format: cell-based
[3] = target: GTPase KRas (Homo sapiens) (UniProt P01116); test: Inhibition of KRAS in human MCF7 cells assessed as reduction in phosphorylated MEK1/2 at Ser217/221 residues protein level at 35 uM measured after 24 hrs by Western blot analysis relative to control; format: cell-based
[4] = target: GTPase KRas (Homo sapiens) (UniProt P01116); test: Inhibition of KRAS in human MDA-MB-231 cells assessed as reduction in Pan RAS protein level at 15 uM measured after 24 hrs by Western blot analysis relative to control; format: cell-based
MDA-MB-231 [5] = test: Induction of apoptosis in human MDA-MB-231 cells assessed as early apoptotic cells at 25 uM measured after 48 hrs by annexinV-FITC/propidium iodide staining based flow cytometry (reference value: 0.69 %); format: functional
MDA-MB-231 [6] = test: Induction of necrosis in human MDA-MB-231 cells; format: functional, cell-based
[7] = target: GTPase KRas (Homo sapiens) (UniProt P01116); test: Inhibition of KRAS in human MCF7 cells assessed as reduction in Pan RAS protein level at 15 uM measured after 24 hrs by Western blot analysis relative to control; format: cell-based
MCF7 [8] = test: Induction of apoptosis in human MCF7 cells assessed as necrotic cells at 25 uM measured after 48 hrs by annexinV-FITC/propidium iodide staining based flow cytometry (reference value: 0.08 %); format: functional
[9] = target: GTPase KRas (Homo sapiens) (UniProt P01116); test: Inhibition of KRAS in human MCF7 cells assessed as reduction in ERK1/2 137F5 protein level at 35 uM measured after 24 hrs by Western blot analysis relative to control; format: cell-based
MCF7 [10] = test: Induction of apoptosis in human MCF7 cells assessed as necrotic cells at 15 uM measured after 48 hrs by annexinV-FITC/propidium iodide staining based flow cytometry (reference value: 0.08 %); format: functional
MDA-MB-231 [11] = test: Cell cycle arrest in human MDA-MB-231 cells assessed as accumulation at G1 phase at 15 uM measured after 48 hrs by propidium iodide/RNase staining based flow cytometry (reference value: 74.56 %); format: functional
MDA-MB-231 [12] = test: Cell cycle arrest in human MDA-MB-231 cells assessed as accumulation at S phase at 15 uM measured after 48 hrs by propidium iodide/RNase staining based flow cytometry (reference value: 22.09 %); format: functional
[13] = target: GTPase KRas (Homo sapiens) (UniProt P01116); test: Inhibition of KRAS in human MDA-MB-231 cells assessed as reduction in phosphorylated ERK1/2 at Thr185/Tyr187 residues protein level at 15 uM measured after 24 hrs by Western blot analysis relative to control; format: cell-based
MDA-MB-231 [14] = test: Induction of apoptosis in human MDA-MB-231 cells assessed as early apoptotic cells at 15 uM measured after 48 hrs by annexinV-FITC/propidium iodide staining based flow cytometry (reference value: 0.69 %); format: functional
MCF7 [15] = test: Induction of apoptosis in human MCF7 cells assessed as early apoptotic cells at 15 uM measured after 48 hrs by annexinV-FITC/propidium iodide staining based flow cytometry (reference value: 0.04 %); format: functional
HEK-293T = test: Cytotoxicity against human 293T cells assessed as reduction in cell viability measured after 48 hrs by MTT assay; format: cell-based
[16] = target: GTPase KRas (Homo sapiens) (UniProt P01116); test: Inhibition of KRAS in human MDA-MB-231 cells assessed as reduction in phosphorylation of ERK measured after 24 hrs by Western blot analysis; format: cell-based
[17] = target: GTPase KRas (Homo sapiens) (UniProt P01116); test: Inhibition of KRAS in human MDA-MB-231 cells assessed as reduction in phosphorylated MEK1/2 at Ser217/221 residues protein level at 25 uM measured after 24 hrs by Western blot analysis relative to control; format: cell-based
MCF7 [18] = test: Induction of apoptosis in human MCF7 cells assessed as late apoptotic cells at 25 uM measured after 48 hrs by annexinV-FITC/propidium iodide staining based flow cytometry (reference value: 0.17 %); format: functional
MDA-MB-231 [19] = test: Induction of apoptosis in human MDA-MB-231 cells assessed as live cells at 15 uM measured after 48 hrs by annexinV-FITC/propidium iodide staining based flow cytometry (reference value: 99 %); format: functional
[20] = target: GTPase KRas (Homo sapiens) (UniProt P01116); test: Inhibition of KRAS in human MCF7 cells assessed as reduction in ERK1/2 137F5 protein level at 15 uM measured after 24 hrs by Western blot analysis relative to control; format: cell-based
[21] = target: GTPase KRas (Homo sapiens) (UniProt P01116); test: Inhibition of KRAS in human MDA-MB-231 cells assessed as reduction in phosphorylated RAF-1 E1 protein level at 35 uM measured after 24 hrs by Western blot analysis relative to control; format: cell-based
[22] = target: GTPase KRas (Homo sapiens) (UniProt P01116); test: Inhibition of KRAS in human MCF7 cells assessed as reduction in phosphorylated MEK1/2 at Ser217/221 residues protein level at 25 uM measured after 24 hrs by Western blot analysis relative to control; format: cell-based
[23] = target: GTPase KRas (Homo sapiens) (UniProt P01116); test: Inhibition of KRAS in human MDA-MB-231 cells assessed as reduction in phosphorylated RAF-1 E1 protein level at 15 uM measured after 24 hrs by Western blot analysis relative to control; format: cell-based
MDA-MB-231 [24] = test: Cell cycle arrest in human MDA-MB-231 cells assessed as accumulation at G1 phase at 25 uM measured after 48 hrs by propidium iodide/RNase staining based flow cytometry (reference value: 74.56 %); format: functional
[25] = target: GTPase KRas (Homo sapiens) (UniProt P01116); test: Inhibition of KRAS in human MDA-MB-231 cells assessed as reduction in phosphorylation of RAF measured after 24 hrs by Western blot analysis; format: cell-based
[26] = target: GTPase KRas (Homo sapiens) (UniProt P01116); test: Inhibition of KRAS in human MDA-MB-231 cells assessed as reduction in phosphorylated ERK1/2 at Thr185/Tyr187 residues protein level at 25 uM measured after 24 hrs by Western blot analysis relative to control; format: cell-based
[27] = target: GTPase KRas (Homo sapiens) (UniProt P01116); test: Inhibition of KRAS in human MDA-MB-231 cells assessed as reduction in ERK1/2 137F5 protein level at 15 uM measured after 24 hrs by Western blot analysis relative to control; format: cell-based
[28] = target: GTPase KRas (Homo sapiens) (UniProt P01116); test: Inhibition of KRAS in human MDA-MB-231 cells assessed as reduction in phosphorylated MEK1/2 at Ser217/221 residues protein level at 35 uM measured after 24 hrs by Western blot analysis relative to control; format: cell-based
MDA-MB-231 [29] = test: Antiproliferative activity against human MDA-MB-231 cells reduction in cell viability measured after 48 hrs by MTT assay; format: functional, cell-based
[30] = target: GTPase KRas (Homo sapiens) (UniProt P01116); test: Inhibition of KRAS in human MDA-MB-231 cells assessed as reduction in MEK1/2 9G3 protein level at 35 uM measured after 24 hrs by Western blot analysis relative to control; format: cell-based
MCF7 [31] = test: Induction of apoptosis in human MCF7 cells assessed as early apoptotic cells at 25 uM measured after 48 hrs by annexinV-FITC/propidium iodide staining based flow cytometry (reference value: 0.04 %); format: functional

O=P(Oc1ccccc1)(Oc1ccccc1)OC1C2OC3(c4ccccc4)OC(C2O)C(O)C1O3 (centres undefined)
Activity (MCF7 [1]): Dose-dependent effect
IC50 (MCF7 [1]; MCF7, 48 h): 35.1 µM
fold change (FC) [2]: 0.97
fold change (FC) [3]: 0.86
fold change (FC) [4]: 1.16
Activity (MDA-MB-231 [5]): 0.07%
Activity (MDA-MB-231 [6]): Dose-dependent effect
fold change (FC) [7]: 0.99
Activity (MCF7 [8]): 61.44%
fold change (FC) [9]: 1.11
Activity (MCF7 [10]): 66.88%
Activity (MDA-MB-231 [11]): 34.45%
Activity (MDA-MB-231 [12]): 44.74%
fold change (FC) [13]: 1.15
Activity (MDA-MB-231 [14]): 0.39%
Activity (MCF7 [15]): 0.37%
IC50 (HEK-293T): 39.5 µM
inhibition [16]: Dose-dependent effect
fold change (FC) [17]: 0.97
Activity (MCF7 [18]): 0.49%
Activity (MDA-MB-231 [19]): 91.93%
fold change (FC) [20]: 1.25
fold change (FC) [21]: 0.17
fold change (FC) [22]: 1.12
fold change (FC) [23]: 0.85
Activity (MDA-MB-231 [24]): 59.93%
inhibition [25]: Dose-dependent effect
fold change (FC) [26]: 1
fold change (FC) [27]: 0.99
fold change (FC) [28]: 0.53
Activity (MDA-MB-231 [29]): Dose-dependent effect
IC50 (MDA-MB-231 [29]; MDA-MB-231, 48 h): 22.4 µM
fold change (FC) [30]: 0.46
Activity (MCF7 [31]): 1.23%
